Laboratory results as given in PubChem BioAssay AID1645848.
Values after ≈ are worked out from the molar mass of the structure shown. Values joined by “and” are separate entries in the source; they are usually repeats but may differ in a detail not shown here. Equal values may be shown once.

Conditions: buffer; pH 7.4; 6.0 h; 150.0 µM

| Compound | solubility kinetic |
| --- | --- |
| COc1ccc(CCNc2ncnc3onc(C)c23)c(OC)c1 | 9.08 µg/mL (≈ 28.9 µM) |
| Clc1ccccc1Nc1nc(-c2ccncc2)nc2ccccc12 | < 1 µg/mL |
| COc1ccccc1-n1cnc2cc(C(=O)N3CCCCC3)ccc21 | > 50 µg/mL |
| O=C(CCCCn1c(=O)[nH]c2ccsc2c1=O)N1CCN(c2cccc(Cl)c2)CC1 | 11.9 µg/mL (≈ 26.7 µM) |
| Cc1ccc(-c2[nH]n3c(=O)c4c(nc3c2C)CCCC4)cc1 | 1.03 µg/mL (≈ 3.52 µM) |
| O=C(O)c1ccnc(-c2cc(C(=O)NCCc3ccccc3)ccn2)c1 | > 51 µg/mL |
| Cc1cn(CCN2CCN(c3ccccc3-c3cc(C#N)cc(C(=O)NCCCN4CCCC4)c3)CC2)c2ccccc12 | 14.6 µg/mL (≈ 25.4 µM) |
| O=C(Cc1ccc(Cl)cc1)Nc1cnccc1C(=O)O | > 43 µg/mL |
| CN1CC(CNC(=O)OCc2ccccc2)C[C@H]2c3cccc4c3c(cn4C)CC21 (some centres undefined) | 38.4 µg/mL (≈ 95.2 µM) |
| CCCCOc1ccc(C(=O)N2CCC(c3n[nH]c(=O)n3-c3ccc(C)cc3)CC2)cc1 | < 1 µg/mL |
| Cc1ccc(S(=O)(=O)Nc2cc3c(cc2C(=O)Nc2nc(-c4ccccc4)cs2)OCO3)cc1 | < 1 µg/mL |
| Cc1ccc(S(=O)(=O)Nc2ccccc2C(=O)Nc2ncc(-c3ccccc3)s2)cc1 | < 1 µg/mL |
| CC1=C(C(=O)Nc2nncs2)C(c2ccccc2Br)N=C(Nc2nc3ccccc3o2)N1 (centres undefined) | < 1 µg/mL |
| CC(=O)c1c(C)[nH]c(C(=O)Nc2cccc([S+](=O)([O-])Nc3c(C)cccc3C)c2)c1C | < 1 µg/mL |
| COc1cc2nc(N3CCCC3)nc(NCCCCCN3CCCC3)c2cc1OC | > 61 µg/mL |
| CN(C)CCN1C(=O)c2cccc3cc(N)cc(c23)C1=O | > 42 µg/mL |
| Cc1cccc(-n2ccc(=O)c(C(=O)Nc3ccc(S(=O)(=O)Nc4nccs4)cc3)n2)c1 | < 1 µg/mL |
| CCOC(=O)c1c(C)c(-c2ccccc2)n(CC(=O)NCc2ccccc2)c1C | < 1 µg/mL |
| Cc1ccccc1C(=O)N1CCc2cc(-c3cccc(NC(=O)Cc4ccc5c(c4)OCO5)c3)ccc21 | < 1 µg/mL |
| COc1ccccc1-c1nc(NCc2ccc(-c3cccnc3)cc2)c2ccccc2n1 | < 1 µg/mL |
| Cc1nn(CCc2nc(-c3ccccc3F)cs2)c2[nH]c(=O)cc(C(F)(F)F)c12 | < 1 µg/mL |
| Cc1ccc(S(=O)(=O)Nc2cnccc2C(=O)Nc2nc(-c3ccc(Oc4ccccc4)cc3)cs2)cc1 | 0.918 µg/mL (≈ 1.69 µM) |
| COc1cc(C(=O)NC2CCCc3c2[nH]c2ccccc32)cc(OC)c1OC (centres undefined) | 7.26 µg/mL (≈ 19.1 µM) |
| O=S(=O)(Nc1nccs1)c1ccc(NCc2ccccc2O)cc1 | > 53 µg/mL |
| Cc1ccc(Nc2nc(C)c(NC(=O)c3ccc(C)cc3)c(Nc3ccc(C)cc3)n2)cc1 | < 1 µg/mL |

| Compound | solubility kinetic |
| --- | --- |
| CCc1cccc(NC(=O)c2cc(-c3ccc[nH]3)n[nH]2)c1 | 4.59 µg/mL (≈ 16.4 µM) |
| CN(C(=O)OC(C)(C)C)[C@@H](Cc1ccc(O[S+](=O)([O-])c2cccc3cnccc23)cc1)C(=O)N1CCN(C(=O)OCc2ccccc2)CC1 | < 1 µg/mL |
| COc1cc(NC(=O)c2nc3ccccc3n(C)c2=O)cc(OC)c1OC | 7.16 µg/mL (≈ 19.4 µM) |
| COc1cccc(CNc2ccc(S(=O)(=O)Nc3ccc(C)nc3)cc2)c1O | 16.5 µg/mL (≈ 41.2 µM) |
| CN=C1CN=C(c2ccc[nH]2)c2cc(Cl)ccc2N1 | 10.8 µg/mL and 28.3 µg/mL |
| COC1C(OC(=O)c2ccc(C)[nH]2)C(O)C(Oc2ccc3c(O)c(NC(=O)c4ccc(O)c(CC=C(C)C)c4)c(=O)oc3c2Cl)OC1(C)C (centres undefined) | > 100 µg/mL |
| O=C(NCCCNc1nc(Nc2cccc(CN3CCOCC3)c2)ncc1C1CC1)C1CCC1 | > 69 µg/mL |
| COc1ccc(NC(=O)c2c(C)cccc2C)cc1[S+](=O)([O-])N1CCCCC1 | 38.8 µg/mL (≈ 96.3 µM) |
| CNc1nccc(-c2cccc3ccccc23)n1 | 4.49 µg/mL (≈ 19.1 µM) |
| COc1cccc(C(=O)Nc2nc(-c3nnn(-c4cccc(Cl)c4C)c3C)ns2)c1 | < 1 µg/mL |
| Cc1cccc(C)c1Nc1c(-c2ccccn2)nc2ccc(Cl)cn12 | < 1 µg/mL |
| CCOc1ccc(CCNC(=O)c2ccccc2)cc1OCC | 29.2 µg/mL (≈ 93.3 µM) |
| C[C@H]1CCC[C@H](O)CCC/C=C/c2cc(O)cc(O)c2C(=O)O1 | 17.1 µg/mL (≈ 53.2 µM) |
| COc1cccc(-n2ncc3c2CCCC3NC(=O)c2ccccn2)c1 (centres undefined) | > 51 µg/mL |
| O=S(=O)(Nc1nccs1)c1ccc(NCc2cccc(Br)c2O)cc1 | 36.3 µg/mL (≈ 82.5 µM) |
| Cc1noc(C)c1-c1cc(-c2ccc3c(c2)C(=O)NC3)cn2cncc12 | > 76 µg/mL |
| Cn1ccc2cc(-c3csc(N4CCC(C(N)=O)CC4)n3)ccc21 | 32.9 µg/mL (≈ 96.7 µM) |
| Cc1ccccc1C(=O)N1CCc2cc(-c3nc(NC(=O)Cc4ccc5ccccc5c4)sc3C)ccc21 | < 1 µg/mL |
| CC1=C(C(=O)Nc2ccccc2C)C(c2ccccc2Br)N=C(Nc2nc3ccccc3o2)N1 (centres undefined) | < 1 µg/mL |
| CS(=O)(=O)CCNCc1ccc(-c2ccc3ncnc(Nc4ccc(OCc5cccc(F)c5)c(Cl)c4)c3c2)o1 | < 1 µg/mL |
| OCc1ccc(-c2cc3c(ccn3Cc3cccnc3)c(C3=CCOCC3)n2)cc1 | 54.9 µg/mL (≈ 138 µM) |
| Cc1ccnc(NC(=S)N2CCN(c3ncc(C(F)(F)F)cc3Cl)CC2)c1 | 12 µg/mL (≈ 29 µM) |
| CCc1oc2ccccc2c1C(=O)c1cc(Br)c(O)c(Br)c1 | > 62 µg/mL |
| CNc1ncc(-c2cccc3ccccc23)o1 | 25.4 µg/mL (≈ 113 µM) |
| CCOC(=O)c1ccc(NC2CCCCC2)c(N)c1 | 31 µg/mL (≈ 118 µM) |

| Compound | solubility kinetic |
| --- | --- |
| COc1ccc(NC(=O)c2c(C)cccc2C)cc1S(=O)(=O)Nc1ccc(Br)cc1 | < 1 µg/mL |
| Clc1ccc2ncc(-c3cccc(NC4CCNCC4)n3)n2c1 | > 48 µg/mL |
| Cc1ccc2c(c1)/C(=C\c1cc(Cl)c(O)c(Cl)c1)C(=O)N2 | 15.4 µg/mL (≈ 48.1 µM) |
| CC(=O)c1c(C)[nH]c(C(=O)Nc2ccc(C)c(S(=O)(=O)N3CCCCCC3)c2)c1C | 1.05 µg/mL (≈ 2.44 µM) |
| Cc1noc(C)c1S(=O)(=O)Nc1cnccc1C(=O)Nc1nc(-c2ccccc2)cs1 | > 66 µg/mL |
| N#Cc1ccc(C(=O)Nc2ccc(Cl)c(-c3nc4cc(Cl)ccc4o3)c2)c(F)c1 | < 1 µg/mL |
| Cc1cc(F)c(C(=O)Nc2cccc(-c3nncn3C(C)C)n2)cc1-n1cnc(C2CC2)c1 | 49.8 µg/mL (≈ 112 µM) |
| COc1cccc(CNc2ccc(S(=O)(=O)Nc3nc4ccccc4o3)cc2)c1O | > 63 µg/mL |
| COc1ccc(C2=Nn3c([n+](C)c4ccccc43)SC2)cc1.[Br-] | > 46 µg/mL |
| CC(=O)c1c(C)[nH]c(C(=O)Nc2cccc(S(=O)(=O)Nc3ccc(Br)cc3)c2)c1C | < 1 µg/mL |
| Cc1ccc(-c2nc(NCC(=O)Nc3cccc(C(=O)O)c3)c3ccccc3n2)cc1 | > 61 µg/mL |
| Cc1ccc(S(=O)(=O)Nc2cnccc2C(=O)NCc2ccccc2)cc1 | > 56 µg/mL |
| Cc1nc2ccc(NC(=O)c3cc(S(=O)(=O)N(C)c4ccccc4)ccc3Cl)cc2s1 | < 1 µg/mL |
| O=C(Nc1nc(-c2ccccc2)cs1)c1ccccc1[N+](=O)[O-] | < 1 µg/mL |
| O=[S+]([O-])(Nc1ccccc1)c1ccc(NCc2ccc(Cl)cc2O)cc1 | 2.64 µg/mL (≈ 6.79 µM) |
| Cc1ccc(CSCc2ccc(C(=O)NC3CC3)o2)cc1 | > 44 µg/mL |
| COc1cc(=O)n2c(c1C(=O)N(C)Cc1cscn1)CCN(C(=O)c1ccc(C)cc1C)CC2 | > 71 µg/mL |
| O=C1C2=C(Nc3ccccc3SC2c2ccco2)c2ccccc21 (centres undefined) | < 1 µg/mL |
| COc1cc(-c2ccnc3c2c(C)nn3-c2cccc(C(F)(F)F)c2)ccc1O | 16.5 µg/mL (≈ 41.2 µM) |
| Cc1ccnc(NC(=S)N2CCC(Nc3cccc(C(F)(F)F)c3)CC2)c1 | 6.4 µg/mL (≈ 16.2 µM) |
| CN1C(=O)c2ccccc2[S@](=O)c2ccc(C(=O)NCc3cccnc3)cc21 | 1.35 µg/mL (≈ 3.45 µM) |
| O=C(Nc1ccc(S(=O)(=O)Nc2nccs2)cc1)c1ccnc2ccccc12 | 2.55 µg/mL (≈ 6.2 µM) |
| Fc1cc(Nc2nc(-c3ccncc3)nc3ccccc23)ccc1N1CCCC1 | < 1 µg/mL |
| Cn1nnnc1Sc1ncnc2sc(-c3ccccc3)cc12 | 0.088 µg/mL (≈ 0.27 µM) |
| N[C@@H](Cc1cc(Br)c(O)c(Br)c1)C(=O)O | > 50 µg/mL |

| Compound | solubility kinetic |
| --- | --- |
| Cc1noc(C)c1Cc1ccc(C(=O)N2CCc3c(nc4cc(-c5ccccc5)[nH]n4c3=O)C2)o1 | 4.77 µg/mL (≈ 10.2 µM) |
| NC(=O)C1CCN(c2nc(-c3ccc(N4CCCCC4)nc3)cs2)CC1 | 43.5 µg/mL (≈ 117 µM) |
| Nc1ncc(S(=O)(=O)N2CCN(c3ccccc3)CC2)cn1 | 1.13 µg/mL (≈ 3.53 µM) |
| COc1ccc(C(=O)N2CCC3(CC2)CN(c2cccc(-c4ccccc4)c2)C3)cc1 | < 1 µg/mL |
| COc1ccc(OC)c(-c2nnc3n2N=C(c2c(OC)cccc2OC)CS3)c1 | 2.63 µg/mL (≈ 6.37 µM) |
| Cc1cccc(-c2cc(NC(=O)c3ccccc3C)n(-c3ccccc3)n2)c1 | < 1 µg/mL |
| COc1ccc(NC(=O)C23CC4CC(CC(C4)C2)C3)cc1[S+](=O)([O-])Nc1ccc(Br)cc1 | < 1 µg/mL |
| CCc1ccccc1-n1c(SCC(=O)Nc2ccc(C)cc2)nc2n[nH]c(C)c2c1=N | < 1 µg/mL |
| COc1ccc(-n2nc(C3CCN([S+](=O)([O-])c4c(C)noc4C)CC3)[nH]c2=O)cc1 | < 1 µg/mL |
| Cn1ccc2c(C(=O)NCCC(N)=O)nc(-c3cccc(CO)c3)cc21 | > 78 µg/mL |
| C1CCc2nc3c(nc2C1)CCCC3 | > 28 µg/mL |
| Fc1cc(Nc2nc(-c3ccncc3)nc3ccccc23)ccc1-c1cccc(C(F)(F)F)c1 | < 1 µg/mL |
| COc1cccc(C(=O)Nc2nc(-c3nnn(-c4ccccc4C(F)(F)F)c3C)ns2)c1 | 1.03 µg/mL (≈ 2.24 µM) |
| CC1(COc2ccc3c(c2)ncn3-c2ccc3cccc(N4CCC(N)CC4)c3n2)COC1 | 36.8 µg/mL (≈ 82.9 µM) |
| Fc1cc(Nc2nc(-c3ccncc3)nc3ccccc23)ccc1C(F)(F)F | < 1 µg/mL |
| CC(=O)c1ccc(N2CCN(c3ccc(NC(=O)c4ccc(F)cc4)cc3C(=O)O)CC2)cc1 | < 1 µg/mL |
| CCOc1ccc(CCN(C)C(=O)c2cc3sccc3n2Cc2ccccc2)cc1OCC | < 1 µg/mL |
| COc1ccc(-c2nc3c(c(SCC(=O)Nc4ccc(C(=O)O)cc4)n2)Cc2ccccc2O3)cc1 | 1.45 µg/mL (≈ 2.9 µM) |
| O=C1CCCC2=C1C(c1[nH]ncc1Cl)N=C(Nc1nc3ccc(F)cc3o1)N2 (centres undefined) | 1.53 µg/mL (≈ 3.81 µM) |
| NC(=O)C1CCN(c2cc(-c3ccc4c(c3)OCCCO4)ncn2)CC1 | > 52 µg/mL |
| CC(=O)N1CCC(NC(=O)c2nc(-c3ccccc3)cc3[nH]ccc23)CC1 | > 80 µg/mL |
| Cc1ccc(NC(=O)C(Cc2ccccc2)NS(=O)(=O)c2cccs2)cc1Cl (centres undefined) | < 1 µg/mL |
| Ic1ccccc1CNC1C2CCN(CC2)C1C(c1ccccc1)c1ccccc1 (centres undefined) | > 75 µg/mL |
| CCCCNc1oc(-c2cccc3ccccc23)nc1C#N | < 1 µg/mL |
